Patent US20110098352A1, “N,N-DISUBSTITUTED AMINOALKYLBIPHENYL ANTAGONISTS OF PROSTAGLANDIN D2 RECEPTORS” (AMIRA PHARMACEUTICALS, INC., priority 2008, published 2011)
Where two headings read alike, the source gives them in different places.

Tests used:
[1] = target: T1, human DP1 receptor (Homo sapiens, UniProt Q13258); test: DP1 radioligand membrane binding assay using [3H]BWA868C; conditions: [3H]BWA868C binding, human platelet membranes; read-out: hDP1
T1 construct: tissue Biological Specialty Corporation; host or cells: human platelets, membranes
T1 sequence (Q13258 1-359): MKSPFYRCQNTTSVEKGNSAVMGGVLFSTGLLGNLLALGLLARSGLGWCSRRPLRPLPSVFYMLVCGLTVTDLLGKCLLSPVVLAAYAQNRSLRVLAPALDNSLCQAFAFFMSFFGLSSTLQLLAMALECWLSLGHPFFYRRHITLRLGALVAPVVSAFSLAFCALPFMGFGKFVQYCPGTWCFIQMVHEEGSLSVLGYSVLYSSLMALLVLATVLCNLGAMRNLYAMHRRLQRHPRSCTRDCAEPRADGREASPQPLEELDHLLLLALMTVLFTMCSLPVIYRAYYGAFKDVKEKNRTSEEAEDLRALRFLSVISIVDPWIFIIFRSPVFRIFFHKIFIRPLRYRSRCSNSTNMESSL
Protocol: The ability of a compound to bind to the human DP1 receptor was evaluated via a radioligand membrane binding assay using the DP1 selective synthetic ligand [^3H]BWA868C. Packed human platelets (Biological Specialty Corporation), were resuspended in 6 volumes of Hepes/HBSS buffer (10 mM Hepes, 1 mM DTT in Hanks Balanced Salt Solution (HBSS)), lysed and centrifuged at 75,000×g to pellet the membranes. Membranes were resuspended in Hepes/HBSS buffer to approximately 12 mg protein/ml. Membranes (20 μg protein/well) are incubated in 96-well plates with 2 nM [^3H]BWA868C and test compound in Assay Buffer (50 mM Hepes, 10 mM MnCl2, 1 mM EDTA, plus or minus 0.2% human serum albumin, pH 7.4) for 60 minutes at room temperature. The reactions are terminated by rapid filtration through Whatman GF/C glass fibre filter plates. The filter plates were pre-soaked in […] polethylenimine for 30 minutes at room temperature then washed in Wash Buffer (50 mM Hepes, 0.5 M NaCl pH 7.4) prior to harvesting. After harvesting, the filter plates are washed 3 times with 1 ml cold Wash Buffer then dried. Scintillant is then added to the plates and the radioactivity retained on the filters is determined on a Packard TopCount (Perkin Elmer). Specific binding is determined as total radioactive binding minus non-specific binding in the presence of 10 μM BWA868C. IC50s were determined using GraphPad prism analysis of drug titration curves.

[2] = target: T2, human DP2 receptor (Homo sapiens, UniProt Q9Y5Y4); test: DP2/CRTH2 radioligand binding assay using [3H]PGD2
T2 construct: expressed in transfected cells
T2 sequence (Q9Y5Y4 1-395): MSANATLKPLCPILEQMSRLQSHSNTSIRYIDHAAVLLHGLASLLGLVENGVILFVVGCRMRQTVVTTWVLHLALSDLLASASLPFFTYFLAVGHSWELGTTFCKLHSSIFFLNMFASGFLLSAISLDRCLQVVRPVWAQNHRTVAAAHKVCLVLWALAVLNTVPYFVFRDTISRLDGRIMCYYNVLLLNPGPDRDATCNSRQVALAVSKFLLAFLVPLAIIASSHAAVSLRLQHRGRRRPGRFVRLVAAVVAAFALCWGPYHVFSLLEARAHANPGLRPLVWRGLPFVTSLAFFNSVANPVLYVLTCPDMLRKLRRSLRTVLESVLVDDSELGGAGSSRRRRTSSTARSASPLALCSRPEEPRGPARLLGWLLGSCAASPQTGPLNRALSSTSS
Protocol: The ability of a compound to bind to the human DP2 receptor is assessed via a radioligand binding assay using [^3H]PGD2. HEK293 cells stably expressing recombinant human DP2 are resuspended in 10 mM Hepes, 7.4 containing 1 mM DTT, lysed and centrifuged at 75,000×g to pellet the membranes. The membranes are resuspended in 10 mM Hepes, 7.4 containing 1 mM DTT and 10% glycerol to approximately 5 mg protein/ml. Membranes (2-10 μg protein/well) are incubated in 96-well plates with 1 nM [^3H]PGD2 and test compound in Assay Buffer (50 mM Hepes, 10 mM MnCl2, 1 mM EDTA, plus or minus 0.2% human serum albumin, pH 7.4) for 60 minutes at room temperature. The reactions are terminated by rapid filtration through Whatman GF/C glass fibre filter plates. The filter plates were pre-soaked in 0.33% polythylenimine for 30 minutes at room temperature then washed in Wash Buffer (50 mM Hepes, 0.5 M NaCl pH 7.4) prior to harvesting. After harvesting, the filter plates are washed 3 times with 1 ml cold Wash Buffer then dried. Scintillant is then added to the plates and the radioactivity retained on the filters is determined on a Packard TopCount (Perkin Elmer). Specific binding is determined as total radioactive binding minus non-specific binding in the presence of 10 μM PGD2. IC50s were determined using GraphPad prism analysis of drug titration curves.

[3] = [3H]PGD2 binding, membranes of HEK293 cells expressing recombinant human DP2, read-out: hDP2

`CCNC(=O)N(CC)Cc1cc(C(F)(F)F)ccc1-c1cc(CC(=O)O)ccc1OC` [Compound 1-181, [2′-(1,3-Diethyl-ureidomethyl)-6-methoxy-4′-trifluoromethyl-biphenyl-3-yl]-acetic acid] gave an IC50 [1] of over 1000 nM and an IC50 [2, 3] of under 300 nM.
`CCN(Cc1cc(C(F)(F)F)ccc1-c1cc(CC(=O)O)ccc1OC)C(=O)NCc1ccccc1O` [Compound 1-253, {2′-[1-Ethyl-3-(2-hydroxy-benzyl)-ureidomethyl]-6-methoxy-4′-trifluoromethyl-biphenyl-3-yl}-acetic acid] was tested, and the IC50 [2, 3] was under 300 nM.
In the case of `CCN(Cc1cc(C(F)(F)F)ccc1-c1cc(CC(=O)O)ccc1OC)C(=O)C1CC1` [Compound 1-33, {2′-[(Cyclopropanecarbonyl-ethyl-amino)-methyl]-6-methoxy-4′-trifluoromethyl-biphenyl-3-yl}-acetic acid], the IC50 [1] is reported as over 1000 nM and the IC50 [2] is reported as under 300 nM.
Molecule `COc1ccc(CC(=O)O)cc1-c1ccc(C(=O)O)cc1CN(CC(F)(F)F)C(C)=O` [Compound 1-37, 2-{[Acetyl-(2,2,2-trifluoro-ethyl)-amino]-methyl}-5′-carboxymethyl-2′-methoxy-biphenyl-4-carboxylic acid] has an IC50 [1] of over 1000 nM and an IC50 [2, 3] of over 1000 nM.
`CCN(Cc1cc(Br)ccc1-c1cc(CC(=O)O)ccc1OC)C(=O)C1CC1` [Compound 1-247, {4′-Bromo-2′-[(cyclopropanecarbonyl-ethyl-amino)-methyl]-6-methoxy-biphenyl-3-yl}-acetic acid] gave an IC50 [2, 3] of under 300 nM.
`CCN(Cc1cc(C(F)(F)F)ccc1-c1cc(CC(=O)O)ccc1OC)C(=O)C(C)(C)C` [Compound 1-245, (2′-{[(2,2-Dimethyl-propionyl)-ethyl-amino]-methyl}-6-methoxy-4′-trifluoromethyl-biphenyl-3-yl)-acetic acid] was tested, and the IC50 [2, 3] was over 1000 nM.
`CCN(Cc1cc(C(F)(F)F)ccc1-c1cc(CC(=O)O)ccc1OC)C(=O)OCc1ccccc1` [Compound 1-28, {2′-[(Benzyloxycarbonyl-ethyl-amino)-methyl]-6-methoxy-4′-trifluoromethyl-biphenyl-3-yl}-acetic acid] showed an IC50 [1] of over 1000 nM.
For `CCN(Cc1cc(SC)ccc1-c1cc(CC(=O)O)ccc1OC)C(=O)C1CC1` [Compound 1-241, {2′-[(Cyclopropanecarbonyl-ethyl-amino)-methyl]-6-methoxy-4′-methylsulfanyl-biphenyl-3-yl}-acetic acid], the IC50 [2, 3] was under 300 nM.
`CCN(Cc1cc(C(F)(F)F)ccc1-c1cccc(CC(=O)O)c1)C(=O)OCc1ccccc1` [Compound 1-143, {2′-[(Benzyloxycarbonyl-ethyl-amino)-methyl]-4′-trifluoromethyl-biphenyl-3-yl}-acetic acid] showed an IC50 [1] of 300 to 1000 nM and an IC50 [2, 3] of under 300 nM.
Work on `O=C(O)Cc1ccc(F)c(-c2ccc(C(F)(F)F)cc2CN(CC(F)(F)F)C(=O)OCc2ccccc2)c1` [Compound 1-49, (2′-{[Benzyloxycarbonyl-(2,2,2-trifluoro-ethyl)-amino]-methyl)-6-fluoro-4′-trifluoromethyl-biphenyl-3-yl)-acetic acid] yielded an IC50 [1] of over 1000 nM and an IC50 [2, 3] of over 1000 nM.
In the case of `CCN(Cc1cc(C(F)(F)F)ccc1-c1cc(CC(=O)O)ccc1OC)C(=O)NCc1cc(F)cc(F)c1` [Compound 1-178, {2′-[3-(3,5-Difluoro-benzyl)-1-ethyl-ureidomethyl]-6-methoxy-4′-trifluoromethyl-biphenyl-3-yl}-acetic acid], the IC50 [1] is reported as over 1000 nM and the IC50 [2, 3] is reported as under 300 nM.
Molecule `CCN(Cc1cc(C(F)(F)F)ccc1-c1cc(CC(=O)O)ccc1OC)C(=O)N[C@H](C)c1ccc(Cl)cc1` [Compound 1-179, (2′-{3-[(R)-1-(4-Chloro-phenyl)-ethyl]-1-ethyl-ureidomethyl}-6-methoxy-4′-trifluoromethyl-biphenyl-3-yl)-acetic acid] has an IC50 [1] of over 1000 nM and an IC50 [2, 3] of under 300 nM.
In the case of `CCN(Cc1cc(C(F)(F)F)ccc1-c1cc(CC(=O)O)ccc1OC)C(=O)C1CCC1` [Compound 1-206, {2′-[(Cyclobutanecarbonyl-ethyl-amino)-methyl]-6-methoxy-4′-trifluoromethyl-biphenyl-3-yl}-acetic acid], the IC50 [2, 3] is reported as under 300 nM.
For `CCN(Cc1cc(C(F)(F)F)ccc1-c1cc(CC(=O)O)ccc1OC)C(=O)NCc1cccc(O)c1` [Compound 1-257, {2′-[1-Ethyl-3-(3-hydroxy-benzyl)-ureidomethyl]-6-methoxy-4′-trifluoromethyl-biphenyl-3-yl}-acetic acid], the IC50 [2, 3] was under 300 nM.
`CCN(Cc1cc(C(F)(F)F)ccc1-c1cccc(CC(=O)O)c1)C(=O)C1CC1` [Compound 1-244, {2′-[(Cyclopropanecarbonyl-ethyl-amino)-methyl]-4′-trifluoromethyl-biphenyl-3-yl}-acetic acid] gave an IC50 [2, 3] of under 300 nM.
`CCN(Cc1cc(C(F)(F)F)ccc1-c1cc(CC(=O)O)ccc1OC)C(=O)OCc1ccc(F)cc1` [Compound 1-41, (2′-{[Ethyl-(4-fluoro-benzyloxycarbonyl)-amino]-methyl}-6-methoxy-4′-trifluoromethyl-biphenyl-3-yl)-acetic acid] showed an IC50 [1] of over 1000 nM.
For `COc1ccc(CC(=O)O)cc1-c1ccc(C(F)(F)F)cc1CN(C(=O)OCc1ccccc1)C1CCC1` [Compound 1-34, {2′-[(Benzyloxycarbonyl-cyclobutyl-amino)-methyl]-6-methoxy-4′-trifluoromethyl-biphenyl-3-yl}-acetic acid], the IC50 [1] was over 1000 nM.
Work on `CCN(Cc1cc(C(=O)O)ccc1-c1cc(CC(=O)O)ccc1OC)C(=O)OCc1ccccc1` [Compound 1-226, 2-[(Benzyloxycarbonyl-ethyl-amino)-methyl]-5′-carboxymethyl-2′-methoxy-biphenyl-4-carboxylic acid] yielded an IC50 [2, 3] of under 300 nM.
In the case of `CCN(Cc1cc(C(F)(F)F)ccc1-c1cc(CC(=O)O)ccc1OC)C(=O)OCc1cc(Cl)cc(Cl)c1` [Compound 1-38, (2′-{[(3,5-Dichloro-benzyloxycarbonyl)-ethyl-amino]-methyl}-6-methoxy-4′-trifluoromethyl-biphenyl-3-yl)-acetic acid], the IC50 [1] is reported as over 1000 nM.
In the case of `COc1ccc(CC(=O)O)cc1-c1ccc(C(F)(F)F)cc1CN(C(=O)OCc1ccccc1)C1CC1` [Compound 1-36, {2′-[(Benzyloxycarbonyl-cyclopropyl-amino)-methyl]-6-methoxy-4′-trifluoromethyl-biphenyl-3-yl}-acetic acid], the IC50 [1] is reported as over 1000 nM.
`CCN(Cc1cc(C(F)(F)F)ccc1-c1cc(CC(=O)O)ccc1OC)C(=O)NCc1ccc(O)cc1` [Compound 1-252, {2′-[1-Ethyl-3-(4-hydroxy-benzyl)-ureidomethyl]-6-methoxy-4′-trifluoromethyl-biphenyl-3-yl}-acetic acid] showed an IC50 [2, 3] of under 300 nM.
`CCN(Cc1cc(C(C)(C)O)ccc1-c1cc(CC(=O)O)ccc1OC)C(=O)OCc1ccccc1` [Compound 1-216, [2′-[(Benzyloxycarbonyl-ethyl-amino)-methyl]-4′-(1-hydroxy-1-methyl-ethyl)-6-methoxy-biphenyl-3-yl]-acetic acid] gave an IC50 [2, 3] of under 300 nM.
Work on `CCN(Cc1cc(S(C)(=O)=O)ccc1-c1cc(CC(=O)O)ccc1OC)C(=O)OCc1ccccc1` [Compound 1-215, {2′-[(Benzyloxycarbonyl-ethyl-amino)-methyl]-4′-methanesulfonyl-6-methoxy-biphenyl-3-yl}-acetic acid] yielded an IC50 [2, 3] of under 300 nM.
